In ChEMBL document CHEMBL1136984, “Orally active C-6 heteroaryl- and heterocyclyl-substituted imidazo[1,2-a]pyridine acid pump antagonists (APAs)” (Bioorg Med Chem Lett, 2009):
One block for each molecule: values may come before it.

How the values were obtained:
[1] = buffer, pH 7.4
in vivo [2] = conditions: rat, iv, 1 mg/kg
in vivo [3] = conditions: rat, po, 1 mg/kg
in vivo [4] = conditions: rat, blood, iv, 1 mg/kg
in vivo [5] = conditions: rat, iv, 1 mg/kg; remark: listed apart in the source
[6] = Blood clearance in dog at 1 mg/kg/hr, iv dosed in saline containing hydroxylpropyl-beta-cyclodextrin and DMSO; format: ADME, organism-based, Canis lupus familiaris; set-up: route intravenous
in vivo [7] = conditions: dog, iv, 1 mg/kg
in vivo [8] = conditions: dog, iv, 1 mg/kg; remark: listed apart in the source
in vivo [9] = conditions: dog, po, 1 mg/kg

Structure (SMILES): Cc1cccc(C)c1CNc1cc(-n2cnccc2=O)cn2c(C)c(C)nc12
- CHI [1]: 2.33

Structure (SMILES): Cc1cn2cc(-n3ccccc3=O)cc(NCc3c(C)cccc3C)c2n1
- half-life (in vivo [2]): 0.5 h
- bioavailability (in vivo [3]): 18%
- clearance (in vivo [4]): 58 mL/min/kg
- Vd (in vivo [5]): 1.8 L/kg

Structure (SMILES): Cc1nc2c(NCc3ccc(F)cc3Cl)cc(-n3ccccc3=O)cn2c1C
- CHI [1]: 2.26

Structure (SMILES): Cc1cccc(CNc2cc(-n3ccccc3=O)cn3c(C)c(C)nc23)c1
- CHI [1]: 2.17

Structure (SMILES): Cc1nc2c(NCc3cccnc3)cc(-n3ccccc3=O)cn2c1C
- CHI [1]: 0.73

Structure (SMILES): COc1ccccc1CNc1cc(-n2ccccc2=O)cn2c(C)c(C)nc12
- CHI [1]: 1.93

Structure (SMILES): Cc1nc2c3c(c(-n4ccccc4=O)cn2c1C)CC[C@@H](c1ccccc1)N3
- CHI [1]: 3.35

Structure (SMILES): Cc1cccc(C)c1COc1cc(-n2ccccc2=O)cn2c(C)c(C)nc12
- CHI [1]: 2.12

Structure (SMILES): Cc1cccc(C)c1CNc1cc(-n2ccccc2=O)cn2c(CO)c(C)nc12
- clearance [6]: 10 mL/min/kg
- half-life (in vivo [2]): 5.3 h
- half-life (in vivo [7]): 1.6 h
- Vd (in vivo [8]): 1.1 L/kg
- bioavailability (in vivo [3]): 28%
- clearance (in vivo [4]): 37 mL/min/kg
- Vd (in vivo [5]): 1 L/kg
- bioavailability (in vivo [9]): 36%

Structure (SMILES): Cc1nc2c(NCc3ccc(F)cc3Cl)cc(-n3cncn3)cn2c1C
- CHI [1]: 2.61

The remaining lines, values ahead:

- CHI [1]: 1.58
Structure (SMILES): Cc1cccc(C)c1CNc1cc(-n2ccc(=O)cc2)cn2c(C)c(C)nc12

- CHI [1]: 1.71
Structure (SMILES): Cc1cccc(C)c1CNc1cc(-n2cc(C(N)=O)ccc2=O)cn2c(C)c(C)nc12

- clearance [6]: 50 mL/min/kg
- half-life (in vivo [7]): 2.3 h
- Vd (in vivo [8]): 6.6 L/kg
- CHI [1]: 3.07
- bioavailability (in vivo [3]): 21%
- clearance (in vivo [4]): 83 mL/min/kg
- Vd (in vivo [5]): 3.5 L/kg
- bioavailability (in vivo [9]): 12%
Structure (SMILES): Cc1cccc(C)c1CNc1cc(-n2cncn2)cn2c(C)c(C)nc12

- CHI [1]: 2.52
Structure (SMILES): CCc1cccc(C)c1CNc1cc(C(N)=O)cn2c(C)c(C)nc12

- CHI [1]: 2.14
Structure (SMILES): Cc1cccc(C)c1CNc1cc(C(=O)NCCO)cn2c(C)c(C)nc12 [LINAPRAZAN]

- CHI [1]: 2.79
Structure (SMILES): Cc1cccc(C)c1CNc1cc(N2CCCCC2=O)cn2c(C)c(C)nc12
